The source of these data is patent US20080299222A1, “Bioactive agrichemical compositions and use thereof” (priority 2007, published 2008).

The structures appear in SMILES notation.

This assay has as its system E. amylovora 153N. Briefly: Fire blight on Snow Drift crabapple trees (Example 287). In kind it is in vivo, Erwinia amylovora. The note with it: rate 5 lbs/a (2.27 kg/a), mean of the counts, 100 blossoms per subplot. As for the experimental part: A study of the bioefficacy of the various agrichemical compositions, including bioactive acid solutions and blends thereof with an antibiotic agrichemical, were evaluated to assess their bioefficacy against fire blight on crabapples. The study was conducted on 5 year old Snow Drift crabapple trees, with each of the compositions being applied to ten trees in two-subplots of five trees, four different times: at 100% bloom—day 1, a second application was made on day 4, a third on day 11 and a final treatment on day 19. The trees were inoculated with E. amylovora 153N at a concentration of 4×10^6 cells per milliliter on day 1, following drying of the treatment, with the inoculation being repeated on day 13. Evaluation for fire blight was completed on 100 blossoms for each of the subplots on day 12, day 19 and day 27. Additionally, the incidence of shoot infection and the length of cankers were evaluated on day 63.
The test compositions were prepared by forming solutions of the bioactive agents. Two different dilutions of the MI2 bioactive were evaluated; the first employing 94.46 ml/gallon (25 ml/l) of water (5 ppm of each metal) and the second 188.9 ml/gallon (50 ml/l) of water (10 ppm of each metal). A streptomycin product (17% concentrated) was diluted at a rate of 0.049 lbs/gallon ([…]) (200 ppm). Finally, copper hydroxide was diluted at a rate of 1 lb/gallon (119.8 g/l). Each of the compositions and blends were spray applied at a rate of 50 gallons (189.3 l) pre acre. The results are presented as the mean of the counts.

On to `[Cu+2].[OH-].[OH-]` [copper hydroxide], for which the “Blossom Incidence” value runs as follows: (Day 12) 3.1; (Day 19) 2.2; (Day 27) 9.0.
